Measurements from patent US9580449B2, “Compositions and methods for the production of pyrimidine and pyridine compounds with BTK inhibitory activity” (Merck Patent GmbH, priority 2011, dated 2017).

Biological target: full-length human BTK (Homo sapiens (Human), UniProt Q06187)
Assay: BTK IC50 enzyme assay (microfluidic off-chip mobility shift kinase assay)
Type: biochemical
Details: incubated for 90 min. at 27 C; read-out: Time Dependent BTK Enzyme Assay IC50
Method: The following describes a microfluidic, off-chip mobility shift kinase assay used to measure inherent potency of compounds against BTK enzyme. Compounds described by embodiments of the present invention were assayed using this protocol and the data from the same is recorded in Table 2 within the column labeled: “Time Dependent BTK Enzyme Assay IC50”.
Stopped reactions were monitored at −2 PSI, −3000 V/−700 V in a LabChip 3000 plate reader from Caliper Life Sciences, a PerkinElmer Company (Hopkinton, Mass.), and the activity was measured by off-chip mobility shift assay measuring the charge/mass difference between substrate and product resulting from peptide phosphorylation. IC50 and efficacy were determined by plotting log [Inhibitor] vs. % Activity in GeneData Screener (Basel, Switzerland). […] I<1 uM and II>1 uM.

Sequence of full-length human BTK (Q06187 whole entry): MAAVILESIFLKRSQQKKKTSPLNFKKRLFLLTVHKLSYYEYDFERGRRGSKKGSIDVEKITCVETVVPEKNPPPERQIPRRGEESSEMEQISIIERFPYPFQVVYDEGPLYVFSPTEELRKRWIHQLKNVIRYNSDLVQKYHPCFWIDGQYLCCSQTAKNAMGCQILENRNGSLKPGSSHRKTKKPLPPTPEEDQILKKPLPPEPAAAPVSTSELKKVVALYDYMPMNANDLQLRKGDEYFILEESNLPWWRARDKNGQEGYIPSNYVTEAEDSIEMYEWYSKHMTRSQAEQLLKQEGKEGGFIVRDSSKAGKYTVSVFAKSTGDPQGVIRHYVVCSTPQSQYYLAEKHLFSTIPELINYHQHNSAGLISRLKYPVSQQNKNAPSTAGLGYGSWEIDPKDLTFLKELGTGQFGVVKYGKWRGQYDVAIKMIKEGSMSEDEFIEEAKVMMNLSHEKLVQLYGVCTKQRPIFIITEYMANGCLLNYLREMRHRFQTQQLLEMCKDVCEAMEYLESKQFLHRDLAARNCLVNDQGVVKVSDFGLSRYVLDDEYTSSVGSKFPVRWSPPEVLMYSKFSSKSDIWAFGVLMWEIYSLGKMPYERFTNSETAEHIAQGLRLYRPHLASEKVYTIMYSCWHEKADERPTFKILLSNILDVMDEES

Row | Compound | IC50 [µM]
1 | CCC(=O)Nc1cccc(-c2c(N)ncnc2Oc2ccc(Oc3ccccc3)cc2)c1 [A325, N-(3-(4-amino-6-(4-phenoxyphenoxy)pyrimidin-5-yl)phenyl)propionamide] | > 1
2 | C=CC(=O)N[C@H]1CC[C@@H](Nc2ncnc(N)c2-c2ccc(OCc3ccccc3)cc2)CC1 [A154] | > 1
3 | C#CC(=O)N1C2CCC1CC(CNc1ncnc(N)c1-c1ccc(Oc3ccccc3)cc1)C2 (stereo not drawn) [A68, 1-(3-(((6-amino-5-(4-phenoxyphenyl)pyrimidin-4-yl)amino)methyl)-8-azabicyclo[3.2.1]octan-8-yl)prop-2-yn-1-one] | < 0.1
4 | C=CC(=O)N1CCCC(Nc2ncncc2-c2ccc(Oc3ccccc3)cc2)C1 (stereo not drawn) [A284, 1-(3-((5-(4-phenoxyphenyl)pyrimidin-4-yl)amino)piperidin-1-yl)prop-2-en-1-one] | < 1
5 | Nc1ncnc(NCC2CCN(C(=O)/C=C/CN3CC(F)(F)C3)CC2)c1-c1ccc(Oc2ccccc2)cc1 [A219, (E)-1-(4-(((6-amino-5-(4-phenoxyphenyl)pyrimidin-4-yl)amino)methyl)piperidin-1-yl)-4-(3,3-difluoroazetidin-1-yl)but-2-en-1-one] | > 1
6 | C=CC(=O)Nc1cccc(Oc2ncnc(N)c2-c2ccc(C(=O)N3CCCC3)cc2)c1 [A285, N-(3-((6-amino-5-(4-(pyrrolidine-1-carbonyl)phenyl)pyrimidin-4-yl)oxy)phenyl)acrylamide] | < 1
7 | C=CC(=O)N1CC(CCNc2ncnc(N)c2-c2ccc(Oc3ccccc3)cc2)C1 [A103, 1-(3-(2-((6-amino-5-(4-phenoxyphenyl)pyrimidin-4-yl)amino)ethyl)azetidin-1-yl)prop-2-en-1-one] | < 1
8 | C=CC(=O)N1CCC(CNc2ncnc(N)c2-c2cc(OC)c(OC)c(OC)c2)CC1 [A83, 1-(4-(((6-amino-5-(3,4,5-trimethoxyphenyl)pyrimidin-4-yl)amino)methyl)piperidin-1-yl)prop-2-en-1-one] | < 1
9 | Nc1ncnc(N[C@@H]2CCCN(S(=O)(=O)c3c(F)c(F)c(F)c(F)c3F)C2)c1-c1ccc(Oc2ccccc2)cc1 [A179, (R)-N4-(1-((perfluorophenyl)sulfonyl)piperidin-3-yl)-5-(4-phenoxyphenyl)pyrimidine-4,6-diamine] | < 1
10 | C=CC(=O)NC1CCCN(c2ncnc(N)c2-c2ccc(Oc3ccccc3)cc2)C1 (stereo not drawn) [A298, N-(1-(6-amino-5-(4-phenoxyphenyl)pyrimidin-4-yl)piperidin-3-yl)acrylamide] | > 1
11 | C=CC(=O)Nc1ccc(-c2cnccc2Oc2ccc(Oc3ccccc3)cc2)cc1 [A281, N-(4-(4-(4-phenoxyphenoxy)pyridin-3-yl)phenyl)acrylamide] | < 1
12 | C=CC(=O)N1CCC(CNc2ncnc(N)c2-c2ccc(F)cc2)CC1 [A77, 1-(4-(((6-amino-5-(4-fluorophenyl)pyrimidin-4-yl)amino)methyl)piperidin-1-yl)prop-2-en-1-one] | > 1
13 | C=CC(=O)N1CC[C@@H](CNc2ncnc(N)c2-c2ccc(Oc3ccc(C#N)cc3)cc2)[C@H](O)C1 (racemic) [A199, 4-(4-(4-((((3S,4S)-1-acryloyl-3-hydroxypiperidin-4-yl)methyl)amino)-6-aminopyrimidin-5-yl)phenoxy)benzonitrile] | < 1
14 | C#CC(=O)N1CCC(CNc2ncnc(N)c2-c2ccc(Oc3ccccc3)cc2)CC1 [A46, 1-(4-(((6-amino-5-(4-phenoxyphenyl)pyrimidin-4-yl)amino)methyl)piperidin-1-yl)prop-2-yn-1-one] | < 0.1
15 | C=CC(=O)N1CCC(CN(C)c2ncnc(N)c2-c2ccc(Oc3ccccc3)cc2)CC1 [A47, 1-(4-(((6-amino-5-(4-phenoxyphenyl)pyrimidin-4-yl)(methyl)amino)methyl)piperidin-1-yl)prop-2-en-1-one] | < 1
16 | C=CC(=O)N1CCC(CNc2ncnc(N)c2-c2ccc(OC)c(OC)c2)CC1 [A82, 1-(4-(((6-amino-5-(3,4-dimethoxyphenyl)pyrimidin-4-yl)amino)methyl)piperidin-1-yl)prop-2-en-1-one] | > 1
17 | C=CC(=O)N1CCO[C@H](COc2ncnc(N)c2-c2cnn(Cc3ccccc3)c2)C1 [A193, (S)-1-(2-(((6-amino-5-(1-benzyl-1H-pyrazol-4-yl)pyrimidin-4-yl)oxy)methyl)morpholino)prop-2-en-1-one] | > 1
18 | C=CC(=O)NCCCNc1ncnc(N)c1-c1ccc(Oc2ccccc2)cc1 [A59, N-(3-((6-amino-5-(4-phenoxyphenyl)pyrimidin-4-yl)amino)propyl)acrylamide] | < 1
19 | Nc1cccc(Oc2ncnc(N)c2-c2ccc(Oc3ccccc3)cc2)c1 [A305, 6-(3-aminophenoxy)-5-(4-phenoxyphenyl)pyrimidin-4-amine] | > 1
20 | C=C(C)C(=O)Nc1cccc(-c2cnccc2Oc2ccc(Oc3ccccc3)cc2)c1 [A322, N-(3-(4-(4-phenoxyphenoxy)pyridin-3-yl)phenyl)methacrylamide] | > 1
21 | C=CC(=O)NCC1CCN(c2ncnc(N)c2-c2ccc(Oc3ccccc3)cc2)CC1 [A7, N-((1-(6-amino-5-(4-phenoxyphenyl)pyrimidin-4-yl)piperidin-4-yl)methyl)acrylamide] | > 1
22 | C/C=C/C(=O)NCc1cccc(-c2cnccc2Oc2ccc(Oc3ccccc3)cc2)c1 [A327, (E)-N-(3-(4-(4-phenoxyphenoxy)pyridin-3-yl)benzyl)but-2-enamide] | > 1
23 | C=CC(=O)Nc1cccc(-c2c(Oc3ccc(Oc4ccccc4)cc3)ccnc2N)c1 [A243, N-(3-(2-amino-4-(4-phenoxyphenoxy)pyridin-3-yl)phenyl)acrylamide] | < 0.1
24 | C=CC(=O)N1CCC=C(c2cnccc2Oc2ccc(Oc3ccccc3)cc2)C1 [A288, 1-(4′-(4-phenoxyphenoxy)-5,6-dihydro-[3,3′-bipyridin]-1(2H)-yl)prop-2-en-1-one] | < 1
25 | C=CC(=O)Nc1cccc(-c2c(N)ncnc2Nc2ccc(Oc3ccccc3)cc2)c1 [A241, N-(3-(4-amino-6-((4-phenoxyphenyl)amino)pyrimidin-5-yl)phenyl)acrylamide] | < 0.1
26 | C=CC(=O)N1CCC(CNc2ncnc(N)c2-c2ccc(Oc3ccc(C(F)(F)F)cc3)cc2)CC1 [A79, 1-(4-(((6-amino-5-(4-(4-(trifluoromethyl)phenoxy)phenyl)pyrimidin-4-yl)amino)methyl)piperidin-1-yl)prop-2-en-1-one] | < 1

Now from value to compound:

Row | IC50 [µM] | Compound
27 | < 0.1 | C=CC(=O)Nc1cccc(Oc2ncnc(N)c2-c2ccc(OCc3cccc(F)c3)cc2)c1 [A260, N-(3-((6-amino-5-(4-((3-fluorobenzyl)oxy)phenyl)pyrimidin-4-yl)oxy)phenyl)acrylamide]
28 | < 0.1 | CN(C)C/C=C/C(=O)N1CCC(F)(CNc2ncnc(N)c2-c2ccc(Oc3ccccc3)cc2)CC1 [A227, (E)-1-(4-(((6-amino-5-(4-phenoxyphenyl)pyrimidin-4-yl)amino)methyl)-4-fluoropiperidin-1-yl)-4-(dimethylamino)but-2-en-1-one]
29 | < 0.1 | CN(C)C/C=C/C(=O)N[C@H]1C[C@@H](Nc2ncnc(N)c2-c2ccc(Oc3ccccc3)cc2)C1 [A224, (E)-N-(1,3-cis-3-((6-amino-5-(4-phenoxyphenyl)pyrimidin-4-yl)amino)cyclobutyl)-4-(dimethylamino)but-2-enamide]
30 | < 0.1 | C=CC(=O)N1CC[C@@H](CNc2ncnc(N)c2-c2ccc(Oc3cccc(C(F)(F)F)c3)cc2)[C@H](O)C1 [A170, 1-((3S,4S)-4-(((6-amino-5-(4-(3-(trifluoromethyl)phenoxy)phenyl)pyrimidin-4-yl)amino)methyl)-3-hydroxypiperidin-1-yl)prop-2-en-1-one]
31 | < 0.1 | C=CC(=O)Nc1ccc(F)c(Oc2ncnc(N)c2-c2ccc(Oc3ccccc3)nc2)c1 [A161, N-(3-((6-amino-5-(6-phenoxypyridin-3-yl)pyrimidin-4-yl)oxy)-4-fluorophenyl)acrylamide]
32 | < 0.1 | C=CC(=O)Nc1cccc(Oc2ncnc(N)c2-c2ccc(Oc3ccccc3F)nc2)c1 [A165, N-(3-((6-amino-5-(6-(2-fluorophenoxy)pyridin-3-yl)pyrimidin-4-yl)oxy)phenyl)acrylamide]
33 | < 0.1 | C#CC(=O)N1CC(CCNc2ncnc(N)c2-c2ccc(Oc3ccccc3)cc2)C1 [A104, 1-(3-(2-((6-amino-5-(4-phenoxyphenyl)pyrimidin-4-yl)amino)ethyl)azetidin-1-yl)prop-2-yn-1-one]
34 | < 0.1 | C=CC(=O)Nc1ccc(Oc2ncnc(N)c2-c2ccc(Oc3ccccc3)cc2)cc1 [A280, N-(4-((6-amino-5-(4-phenoxyphenyl)pyrimidin-4-yl)oxy)phenyl)acrylamide]
35 | < 0.1 | C#CC(=O)N1CC[C@@H](CNc2ncnc(N)c2-c2cnn(Cc3ccccc3)c2)[C@H](O)C1 [A110, 1-((3S,4S)-4-(((6-amino-5-(1-benzyl-1H-pyrazol-4-yl)pyrimidin-4-yl)amino)methyl)-3-hydroxypiperidin-1-yl)prop-2-yn-1-one]
36 | < 0.1 | C=CC(=O)NC12CCC(Nc3ncnc(N)c3-c3ccc(Oc4ccccc4)cc3)(C1)C2 [A177, N-(4-((6-amino-5-(4-phenoxyphenyl)pyrimidin-4-yl)amino)bicyclo[2.1.1]hexan-1-yl)acrylamide]
37 | < 0.1 | C=CC(=O)Nc1cccc(Oc2nc(N)ncc2-c2ccc(Oc3ccccc3)cc2)c1 [A271, N-(3-((2-amino-5-(4-phenoxyphenyl)pyrimidin-4-yl)oxy)phenyl)acrylamide]
38 | < 0.1 | C=CC(=O)Nc1cccc(Oc2ncnc(N)c2-c2ccc(OCc3ccccc3)c(F)c2F)c1 [A257, N-(3-((6-amino-5-(4-(benzyloxy)-2,3-difluorophenyl)pyrimidin-4-yl)oxy)phenyl)acrylamide]
39 | < 0.1 | C=CC(=O)N1CCO[C@H](COc2ncnc(N)c2-c2ccc(Oc3ccccc3)cc2)C1 [A65, (S)-1-(2-(((6-amino-5-(4-phenoxyphenyl)pyrimidin-4-yl)oxy)methyl)morpholino)prop-2-en-1-one]
